Measured values as given in US20150087722A1, “TREATMENT FOR BREAST TUMOR CELL METASTASIS” (China Medical University, priority 2012, published 2015).

Assays:
[1] = system: EMT-related proteins in breast tumor cells MDA-MB-231; assay: western blotting of EMT-related proteins; type: cell-based, human; conditions: MDA-MB-231, 0.5, 1 and 2 μM, 24 h, with dose increasing
Procedure: FIG. 2A illustrates the expression results of EMT-related proteins in breast tumor cells MDA-MB-231 after the breast tumor cells MDA-MB-231 have been respectively cultured under compound II having concentrations of 0, 0.5, 1 and 2 μM for 24 h; and FIG. 2B illustrates the expression results of EMT-related proteins in breast tumor cells MCF-7 after the breast tumor cells MCF-7 have been respectively cultured under the compound II having concentrations of 0, 10, 15 and 20 μM for 24 h. FIG. 3A illustrates the western blotting results of EMT-related proteins in the breast tumor cells MDA-MB-468, where the breast tumor cells MDA-MB-468 are treated with the compound I having concentrations of 0, 0.5, 1 and 2 μM for 24 h, and FIG. 3B illustrates the western blotting results of EMT-related proteins in the breast tumor cells MDA-MB-435, where the breast tumor cells MDA-MB-435 are treated with the compound I having concentrations of 0, 2.5, 5 and 7.5 μM for 24 h. […] Then luminescence image equipment was used, where the PVDF was placed onto a black metal plate by a plastic pincer and the face including protein was upwards, a 1:1 mixed Chemiluminesent Substrate was added into the membrane and the exposure time depends on the fluorescence intensity of antibodies. […]

[2] = system: breast tumor cells MDA-MB-231; assay: wound scratching assay (cell migration); type: cell-based, human
Procedure: Referring to FIG. 14, the wound scratching assay was performed to analysis effect of the compound II in different doses on tumor cell metastasis. In the wound scratching assay for observing cell migration, the cells MDA-MB-231 (3×10^5) were planted in a 12-well plate, and the next day the cells were washed with PBS twice. The original culture medium then was replaced by 1% FBS cell culture medium. The next day a space was scratched at the bottom of the well. The cell culture medium was removed and the cells were washed with PBS twice. 1% FBS cell culture medium and the compound II of different concentrations were added and photographs were taken after 0, 12, 24 and 36 h so as to observe migration of cells. After the reaction, the cells were fixed for 30 min using 75% ice alcohol. After the alcohol was completely volatilized, the cells were stained with Giemsa Stain. The migration number of cells was counted in three random fields (200×) under the microscope (Lin et al., 2008). […] After the breast tumor cells were treated for 0, 12, 24 and 36 h, the quantitative result of effect of the compound II on metastasis of breast tumor cells MDA-MD-231 was observed, and the data results were represented by mean±SD values, where n=3.

Question: With `COC1=C(OC)C(=O)C(C)=C(C)C1=O` [compound II] as the molecule, how does the “expression amount of E-cadherin, occludin and ICAM” value [1] read?
Answer: increased

Question: And the “expression amount of proteins facilitating tumor cell proliferation (Twist, Snail, vimentin, β-catenin, VEGF)” value [1]?
Answer: decreased

Question: And the “breast tumor cells migrated” value ([2]; 0.5 μM, in 12-24 h)?
Answer: 60-70%

Question: And the “migration capability of breast tumor cells” value ([2]; concentration above 1 μM)?
Answer: significantly inhibited
